According to ChEMBL document CHEMBL3877269, “Structure-activity relationships and optimization of acyclic acylphloroglucinol analogues as novel antimicrobial agents” (Eur J Med Chem, 2017):
Values after ≈ are worked out from the molar mass of the structure shown. Active and inactive are the calls of the source. The calls are words filed in the database; no cut-off is given here.

Legend:
[1] = Selectivity ratio of IC50 for mouse RAW264.7 cells to MIC for methicillin-resistant Staphylococcus aureus JCSC 2172; format: ADME
[2] = test system: Staphylococcus aureus; test: Antibacterial activity against methicillin-resistant Staphylococcus aureus JCSC 2172 after 8 to 12 hrs by resazurin dye based microdilution method; format: functional
[3] = test system: Bacillus subtilis; test: Antibacterial activity against Bacillus subtilis ATCC 11774 after 8 to 12 hrs by resazurin dye based microdilution method; format: functional
[4] = Solubility of the compound in DMSO; format: physicochemical
[5] = test system: Bacillus thuringiensis; test: Antibacterial activity against Bacillus thuringiensis ATCC 10792 after 8 to 12 hrs by resazurin dye based microdilution method; format: functional
[6] = test system: Escherichia coli; test: Antibacterial activity against Escherichia coli ATCC 8739 after 8 to 12 hrs by resazurin dye based microdilution method; format: functional
[7] = test system: Staphylococcus aureus; test: Antibacterial activity against drug-susceptible Staphylococcus aureus ATCC 6538 after 8 to 12 hrs by resazurin dye based microdilution method; format: functional
[8] = test system: Bacillus cereus; test: Antibacterial activity against Bacillus cereus ATCC 10876 after 8 to 12 hrs by resazurin dye based microdilution method; format: functional
[9] = Cytotoxicity against mouse RAW264.7 cells assessed as reduction in cell viability after 24 hrs by MTT assay; format: toxicity
[10] = test system: Staphylococcus aureus; test: Disruption of cytoplasmic membrane potential in methicillin-resistant Staphylococcus aureus JCSC 2172 at 10 ug/ml after 4 hrs by SYTOX green dye based fluorescence assay; format: functional

| Structure (SMILES) | selectivity ratio [1] | MIC [2] | MIC [3] | solubility [4] | MIC [5] | MIC [6] | MIC [7] | MIC [8] | IC50 at 24 h [9] | Activity [10] |
| --- | --- | --- | --- | --- | --- | --- | --- | --- | --- | --- |
| CCCCCCCCCCCCCC(=O)c1c(O)cc(O)c([C@@H](CC(C)C)C2=C(O)C(C)(C)C(=O)C(C)(C)C2=O)c1O | 13.1 | 1 µg/mL (≈ 1.7 µM) | 8 µg/mL (≈ 13.6 µM) | Insoluble | 2 µg/mL (≈ 3.41 µM) | > 32 µg/mL | 0.5 µg/mL (≈ 0.852 µM) | 4 µg/mL (≈ 6.82 µM) | 13.1 µg/mL (≈ 22.3 µM) | – |
| CC(C)CC(=O)c1c(O)cc(O)c([C@@H](CC(C)C)C2=C(O)C(C)(C)C(=O)C(C)(C)C2=O)c1O | – | 8 µg/mL (≈ 17.4 µM) | – | – | – | – | 8 µg/mL (≈ 17.4 µM) | – | – | – |
| CCCCCCCCCCCCCCCC(=O)c1c(O)cc(O)c([C@@H](CC(C)C)C2=C(O)C(C)(C)C(=O)C(C)(C)C2=O)c1O | 17.5 | 1 to 2 µg/mL (≈ 1.63 to 3.25 µM) | 16 µg/mL (≈ 26 µM) | Insoluble | 2 µg/mL (≈ 3.25 µM) | > 32 µg/mL | 1 µg/mL (≈ 1.63 µM) | 8 µg/mL (≈ 13 µM) | 17.5 µg/mL (≈ 28.5 µM) | – |
| CC[C@H](C)[C@H](NC(=O)CN)C(=O)NCC(=O)N[C@@H](C)C(=O)N[C@H](C(=O)N[C@@H](CC(C)C)C(=O)N[C@@H](CCCCN)C(=O)N[C@H](C(=O)N[C@@H](CC(C)C)C(=O)N[C@H](C(=O)N[C@H](C(=O)NCC(=O)N[C@@H](CC(C)C)C(=O)N1CCC[C@H]1C(=O)N[C@@H](C)C(=O)N[C@@H](CC(C)C)C(=O)N[C@H](C(=O)N[C@@H](CO)C(=O)N[C@@H](Cc1c[nH]c2ccccc12)C(=O)N[C@H](C(=O)N[C@@H](CCCCN)C(=O)N[C@@H](CCCNC(=N)N)C(=O)N[C@@H](CCCCN)C(=O)N[C@@H](CCCNC(=N)N)C(=O)N[C@@H](CCC(N)=O)C(=O)N[C@@H](CCC(N)=O)C(N)=O)[C@@H](C)CC)[C@@H](C)CC)[C@@H](C)O)[C@@H](C)O)C(C)C)C(C)C | – | – | – | – | – | – | – | – | – | Active |
| CC(C)C[C@@H](C1=C(O)C(C)(C)C(=O)C(C)(C)C1=O)c1c(O)cc(O)c(C(=O)CCc2ccccc2)c1O | – | 8 µg/mL (≈ 15.7 µM) | – | – | – | – | 4 µg/mL (≈ 7.86 µM) | – | – | – |
| CCCCCCC(=O)c1c(O)cc(O)c([C@@H](CC(C)C)C2=C(O)C(C)(C)C(=O)C(C)(C)C2=O)c1O | 16.7 | 0.5 µg/mL (≈ 1.02 µM) | 0.25 µg/mL (≈ 0.512 µM) | – | 0.5 µg/mL (≈ 1.02 µM) | > 32 µg/mL | 0.5 µg/mL (≈ 1.02 µM) | 0.5 µg/mL (≈ 1.02 µM) | 8.8 µg/mL (≈ 18 µM) | – |
| CCCC(=O)c1c(O)cc(O)c([C@@H](CC(C)C)C2=C(O)C(C)(C)C(=O)C(C)(C)C2=O)c1O | – | 32 µg/mL (≈ 71.7 µM) | – | – | – | – | 32 µg/mL (≈ 71.7 µM) | – | – | – |
| CC(C)C[C@@H](C1=C(O)C(C)(C)C(=O)C(C)(C)C1=O)c1c(O)cc(O)c(C(=O)C2CCCCC2)c1O | – | 4 µg/mL (≈ 8.22 µM) | – | – | – | – | 4 µg/mL (≈ 8.22 µM) | – | – | – |
| CCCCCCCCCC(=O)c1c(O)cc(O)c([C@@H](CC(C)C)C2=C(O)C(C)(C)C(=O)C(C)(C)C2=O)c1O | 20.4 | 0.25 µg/mL (≈ 0.471 µM) | 0.25 µg/mL (≈ 0.471 µM) | – | 0.5 µg/mL (≈ 0.942 µM) | > 32 µg/mL | 0.25 µg/mL (≈ 0.471 µM) | 1 µg/mL (≈ 1.88 µM) | 5.1 µg/mL (≈ 9.61 µM) | – |
| CC(C)C[C@@H](C1=C(O)C(C)(C)C(=O)C(C)(C)C1=O)c1c(O)cc(O)c(C(=O)C2CCCC2)c1O | – | > 32 µg/mL | – | – | – | – | 32 µg/mL (≈ 67.7 µM) | – | – | – |
| CCCCCCCCCCC(=O)c1c(O)cc(O)c([C@@H](CC(C)C)C2=C(O)C(C)(C)C(=O)C(C)(C)C2=O)c1O | 22.2 | 0.5 µg/mL (≈ 0.918 µM) | 0.25 µg/mL (≈ 0.459 µM) | – | 0.25 µg/mL (≈ 0.459 µM) | > 32 µg/mL | 0.25 µg/mL (≈ 0.459 µM) | 0.5 µg/mL (≈ 0.918 µM) | 11.1 µg/mL (≈ 20.4 µM) | – |
